Results: ChEMBL document CHEMBL1201862, “PubChem BioAssay data set” (2004)
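How tested: cells in 96-well plates exposed to compound for 48 hours at five concentrations. GI50 is the concentration that inhibits growth by half.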 The source made the active and inactive calls. Cut-off read from the data, not from the text of the source: active = GI50 up to about 1.1 µM and inactive = higher.

Columns and labels:
Experiment in all cases: growth of human tumour cells (NCI), 48 h
[1] = test system: A498
[2] = test system: A549
[3] = test system: HCT-116
[4] = test system: HT-29
[5] = test system: Hs-578T
[6] = test system: LOX IMVI
[7] = test system: MCF7
[8] = test system: MDA-MB-231
[9] = test system: MDA-N
[10] = test system: MOLT-4
[11] = test system: NCI-H23
[12] = test system: NCI-H460
[13] = test system: RPMI-8226
[14] = test system: SK-MEL-2
[15] = test system: SW-620
[16] = test system: U-251
[17] = test system: UACC-62
[18] = test system: SN12C

| Compound | GI50 [1] | GI50 [2] | GI50 [3] | GI50 [4] | GI50 [5] | GI50 [6] | GI50 [7] | GI50 [8] | GI50 [9] | GI50 [10] | GI50 [11] | GI50 [12] | GI50 [13] | GI50 [14] | GI50 [15] | GI50 [16] | GI50 [17] | GI50 [18] |
| --- | --- | --- | --- | --- | --- | --- | --- | --- | --- | --- | --- | --- | --- | --- | --- | --- | --- | --- |
| C[C@]12CC(c3ccccc3O1)C(C(=O)NC13CC4CC(CC(C4)C1)C3)C(=O)N2 (some centres undefined) | 39.9 µM (inactive) | 21.1 µM (inactive) | 18.4 µM (inactive) | 16.1 µM (inactive) | 55.7 µM (inactive) | 23.4 µM (inactive) | 39.5 µM (inactive) | 34.4 µM (inactive) | 18.1 µM (inactive) | 12 µM (inactive) | 23.7 µM (inactive) | 35.4 µM (inactive) | 16 µM (inactive) | 19.9 µM (inactive) | 46.3 µM (inactive) | 36.6 µM (inactive) | 46.8 µM (inactive) | – |
| O=[N+]([O-])C(=C(N1CCOCC1)N1CCOCC1)/C(Cl)=C(\Cl)Br | 37.4 µM (inactive) | > 100 µM (inactive) | 17.1 µM (inactive) | 26.8 µM (inactive) | > 100 µM (inactive) | 19.3 µM (inactive) | > 10 µM (inactive) | 17.9 µM (inactive) | 26.4 µM (inactive) | 15.3 µM (inactive) | 17.3 µM (inactive) | > 100 µM (inactive) | 14.5 µM (inactive) | 21.8 µM (inactive) | 15.5 µM (inactive) | 19 µM (inactive) | – | 17 µM (inactive) |
| COC(=O)C(=O)C(C(=O)C(=O)Nc1ccc(Cl)c(Cl)c1)c1nc2ccc(C(=O)c3ccccc3)cc2nc1O (centres undefined) | > 100 µM (inactive) | > 100 µM (inactive) | 61.4 µM (inactive) | 44.2 µM (inactive) | 22.1 µM (inactive) | 59.3 µM (inactive) | 35.2 µM (inactive) | 51.3 µM (inactive) | 42.9 µM (inactive) | 15 µM (inactive) | 47.6 µM (inactive) | – | 40.2 µM (inactive) | 97.9 µM (inactive) | 46.9 µM (inactive) | 71 µM (inactive) | > 100 µM (inactive) | > 100 µM (inactive) |
| CCCCCCCCCCC/C=C(/C(=O)CCCO[Si](C)(C)C(C)(C)C)C(=O)OC | > 100 µM (inactive) | – | > 100 µM (inactive) | > 100 µM (inactive) | > 100 µM (inactive) | > 100 µM (inactive) | > 100 µM (inactive) | > 100 µM (inactive) | > 100 µM (inactive) | > 100 µM (inactive) | > 100 µM (inactive) | > 100 µM (inactive) | > 100 µM (inactive) | > 100 µM (inactive) | > 100 µM (inactive) | > 100 µM (inactive) | > 100 µM (inactive) | > 100 µM (inactive) |
| CCN(CC)CCN(C)CCc1ccc(Br)cc1 | 13.8 µM (inactive) | > 100 µM (inactive) | 59.8 µM (inactive) | 24.9 µM (inactive) | 21.7 µM (inactive) | 42.9 µM (inactive) | 48.8 µM (inactive) | 54.3 µM (inactive) | 29.7 µM (inactive) | 53.6 µM (inactive) | > 100 µM (inactive) | > 100 µM (inactive) | > 100 µM (inactive) | > 100 µM (inactive) | 54.8 µM (inactive) | 41.4 µM (inactive) | – | > 100 µM (inactive) |
| CCOC(=O)c1c2ccccc2n2c(=O)n(-c3ccc(OC)cc3)nnc12 | 44.3 µM (inactive) | 46.5 µM (inactive) | 54.8 µM (inactive) | – | 19.9 µM (inactive) | 17.3 µM (inactive) | 0.555 µM (active) | > 45.5 µM (inactive) | > 100 µM (inactive) | – | 34.4 µM (inactive) | > 95.1 µM (inactive) | 25.1 µM (inactive) | 22.8 µM (inactive) | > 42.4 µM (inactive) | 16.9 µM (inactive) | 11.2 µM (inactive) | > 83.8 µM (inactive) |
| O=C(OCc1ccccc1)C1(N2CN(C3(C(=O)OCc4ccccc4)CCCC3)CN(C3(C(=O)OCc4ccccc4)CCCC3)C2)CCCC1 | – | > 10 µM (inactive) | > 10 µM (inactive) | > 10 µM (inactive) | > 10 µM (inactive) | > 10 µM (inactive) | > 10 µM (inactive) | > 10 µM (inactive) | > 10 µM (inactive) | > 10 µM (inactive) | > 10 µM (inactive) | > 10 µM (inactive) | > 10 µM (inactive) | > 10 µM (inactive) | > 10 µM (inactive) | > 10 µM (inactive) | > 10 µM (inactive) | > 10 µM (inactive) |
| O=C1C(=C/C=C2/SC(c3ccccc3)(c3ccccc3)c3ccccc32)C(=O)c2ccccc21 | > 100 µM (inactive) | > 100 µM (inactive) | > 100 µM (inactive) | > 100 µM (inactive) | > 100 µM (inactive) | > 100 µM (inactive) | > 100 µM (inactive) | > 100 µM (inactive) | > 100 µM (inactive) | > 100 µM (inactive) | > 100 µM (inactive) | > 100 µM (inactive) | > 100 µM (inactive) | – | > 100 µM (inactive) | > 100 µM (inactive) | > 100 µM (inactive) | > 100 µM (inactive) |
| NC1CC(Cl)c2c(Cl)sc(Cl)c21 (centres undefined) | > 100 µM (inactive) | > 100 µM (inactive) | > 100 µM (inactive) | > 100 µM (inactive) | > 100 µM (inactive) | > 100 µM (inactive) | > 100 µM (inactive) | > 100 µM (inactive) | > 100 µM (inactive) | > 100 µM (inactive) | > 100 µM (inactive) | > 100 µM (inactive) | – | > 100 µM (inactive) | > 100 µM (inactive) | > 100 µM (inactive) | > 100 µM (inactive) | > 100 µM (inactive) |
| CN1c2ccccc2C2=C(c3ccccc3)CC[C@@H](C(=O)N3C4CC5CC[C@@]4(CS3(=O)=O)C5(C)C)[C@@H]21 (some centres undefined) | > 100 µM (inactive) | > 100 µM (inactive) | 34.2 µM (inactive) | > 100 µM (inactive) | > 100 µM (inactive) | > 100 µM (inactive) | > 100 µM (inactive) | > 100 µM (inactive) | > 100 µM (inactive) | 4.58 µM (inactive) | > 100 µM (inactive) | > 100 µM (inactive) | > 100 µM (inactive) | – | > 100 µM (inactive) | > 100 µM (inactive) | > 100 µM (inactive) | > 100 µM (inactive) |
| COC(=O)c1ccccc1CC1Cc2cc3c(cc2C1)CCC3 | 49.4 µM (inactive) | 36.1 µM (inactive) | 22.1 µM (inactive) | 29.2 µM (inactive) | 45.8 µM (inactive) | 24 µM (inactive) | 45.9 µM (inactive) | 55.1 µM (inactive) | 47.8 µM (inactive) | 18.5 µM (inactive) | 38.5 µM (inactive) | 48.2 µM (inactive) | 17.3 µM (inactive) | 19.4 µM (inactive) | 53.5 µM (inactive) | 36.5 µM (inactive) | – | 40.2 µM (inactive) |
| CCOC(=O)NC(NC1=NCCS1)(C(=O)OCC)C(F)(F)F (centres undefined) | > 100 µM (inactive) | > 100 µM (inactive) | > 100 µM (inactive) | > 100 µM (inactive) | > 100 µM (inactive) | > 100 µM (inactive) | > 100 µM (inactive) | > 100 µM (inactive) | > 100 µM (inactive) | > 100 µM (inactive) | > 100 µM (inactive) | > 100 µM (inactive) | > 100 µM (inactive) | > 100 µM (inactive) | > 100 µM (inactive) | > 100 µM (inactive) | – | > 100 µM (inactive) |
| Cc1nn(C(=O)Cc2ccccc2)c2c1C(c1ccc([N+](=O)[O-])cc1)SC(=N)N2 (centres undefined) | > 100 µM (inactive) | > 100 µM (inactive) | > 100 µM (inactive) | > 100 µM (inactive) | > 100 µM (inactive) | > 100 µM (inactive) | > 100 µM (inactive) | > 100 µM (inactive) | > 100 µM (inactive) | > 100 µM (inactive) | > 100 µM (inactive) | > 100 µM (inactive) | > 100 µM (inactive) | – | > 100 µM (inactive) | – | > 100 µM (inactive) | > 100 µM (inactive) |
| COP(=O)(OC)C12CCOCCN1c1ccccc1C2=O (centres undefined) | > 100 µM (inactive) | > 100 µM (inactive) | > 100 µM (inactive) | > 100 µM (inactive) | > 100 µM (inactive) | – | > 100 µM (inactive) | > 100 µM (inactive) | > 100 µM (inactive) | > 100 µM (inactive) | > 100 µM (inactive) | > 100 µM (inactive) | > 100 µM (inactive) | > 100 µM (inactive) | > 100 µM (inactive) | > 100 µM (inactive) | > 100 µM (inactive) | > 100 µM (inactive) |
| COC(=O)C1=C(C)N2[C@H](C(=O)O)CS[C@@]2(C)[C@H](C(=O)OC)[C@H]1c1cccc([N+](=O)[O-])c1 | > 100 µM (inactive) | > 100 µM (inactive) | > 100 µM (inactive) | > 100 µM (inactive) | > 100 µM (inactive) | – | > 100 µM (inactive) | > 100 µM (inactive) | > 100 µM (inactive) | > 100 µM (inactive) | > 100 µM (inactive) | > 100 µM (inactive) | > 100 µM (inactive) | > 100 µM (inactive) | > 100 µM (inactive) | > 100 µM (inactive) | > 100 µM (inactive) | > 100 µM (inactive) |
| N/N=C1N=C(Cl)/C(=C/c2ccco2)N\1 | > 100 µM (inactive) | 38 µM (inactive) | 36.5 µM (inactive) | 34.9 µM (inactive) | 41.3 µM (inactive) | 27.9 µM (inactive) | 56 µM (inactive) | > 100 µM (inactive) | 47.8 µM (inactive) | 11.9 µM (inactive) | 54.8 µM (inactive) | – | 16.8 µM (inactive) | 36.2 µM (inactive) | 41.5 µM (inactive) | 47.9 µM (inactive) | – | 67.1 µM (inactive) |
